Experimental data: the PolyMetriX glass transition set
± gives the standard deviation of the reports.

| SMILES | glass transition temperature [°C] |
| --- | --- |
| *CC(OC)C(C(=O)OC)C(*)C(=O)OC (repeat unit) | 59.50 |
| *Oc1ccc(CC(NC(=O)Cc2ccc(OC(=O)CCC(*)=O)cc2)C(=O)OCCCCCC)cc1 (repeat unit) | 59.00 |
| *COc1ccc(C(c2ccc(OCC3(*)COC3)cc2)(C(F)(F)F)C(F)(F)F)cc1 (repeat unit) | 134.00 |
| *O[Si](*)(C)CCc1cc(-c2nnc(-c3ccc(OCCCCCCCCCCCC)cc3)o2)ccc1-c1nnc(-c2ccc(OCCCCCCCCCCCC)cc2)o1 (repeat unit) | 156.00 |
| *Oc1ccc(C(C)(C)c2ccc(OC(=O)SCCCCCCSC(*)=O)cc2)cc1 (repeat unit) | 58.00 |
| *CC(O)COC(=O)CCCCCCCCC(=O)OCC(O)COc1ccc(C(=O)Oc2ccc(O*)cc2)cc1 (repeat unit) | 36.00 |
| *OP(=O)(Oc1ccc(C)cc1)Oc1ccc(S(=O)(=O)c2ccc(*)cc2)cc1 (repeat unit) | 66.00 |
| *CC(*)(C)C(=O)OCCC#N (repeat unit) | 91.00 |
| *O[Si](*)(C)C (repeat unit) [Poly(dimethylsiloxane)] | -124 ± 2 |
| *c1cccc(P(=O)(c2ccc(C(F)(F)F)cc2)c2cccc(-n3c(=O)c4cc5c(=O)n(*)c(=O)c5c(-c5ccc(C(F)(F)F)cc5)c4c3=O)c2)c1 (repeat unit) | 303.00 |
| */C=C/CCCCCC* (repeat unit) | -78.00 |
| *CC(*)(C)C(=O)Oc1ccc(C(=O)O)cc1 (repeat unit) | 110.00 |
| *CC(CO)(CCl)COc1ccc(C(c2ccc(O*)cc2)(C(F)(F)F)C(F)(F)F)cc1 (repeat unit) | 107.00 |
| *CC(*)c1cccc(C)c1 (repeat unit) [Poly(m-methyl styrene) ] | 95 ± 11 |
| *CC(*)(C)C(=O)OCc1ccc(F)cc1F (repeat unit) | 46.00 |
| *CC(COC(=O)O*)OCCOc1ccc(/C=C/c2ccc([N+](=O)[O-])cc2)cc1 (repeat unit) | 53.00 |
| *CC(OCC)C(C(=O)OC)C(*)C(=O)OC (repeat unit) | 50.00 |
| *Oc1ccc(CC(NC(=O)CCc2ccc(OC(=O)CCCCCCC(*)=O)cc2)C(=O)OC)cc1 (repeat unit) | 55.50 |
| *c1ccc(Oc2ccc(Oc3ccc(P(=O)(c4ccccc4)c4ccc(Oc5ccc(Oc6ccc(-c7nc8cc9sc(*)nc9cc8s7)cc6)cc5)cc4)cc3)cc2)cc1 (repeat unit) | 255.00 |
| *CCOCCOC(=O)C(CCCCC)C(=O)O* (repeat unit) | -47.00 |
| *CCC(F)(F)C(*)(F)F (repeat unit) | -108.00 |
| *CC(C)/C=C(/*)C (repeat unit) | 2.30 |
| *CCOCCOC(=O)C1CCC(C(=O)O*)CC1 (repeat unit) | -12.00 |
| *CC(*)OC(=O)C(C)(CC)C(C)(C)C (repeat unit) | 120.00 |
| *NC(CCC(=O)OCc1ccc(F)cc1)C(*)=O (repeat unit) | 46.90 |
| *O[Si](*)(C)CCCOc1ccc(C(=O)OCCOc2ccc(C(=O)OC3CCC4(C)C(=CCC5C4CCC4(C)C(C(C)CCCC(C)C)CCC54)C3)cc2)cc1 (repeat unit) | 42.00 |
| *C(*)(F)Cl (repeat unit) | 77.00 |
| *CC(*)(C)C(=O)OCCOCCOCC1COCCOCCOCCO1 (repeat unit) | 10.00 |

The next lines start with the values.

| glass transition temperature [°C] | SMILES |
| --- | --- |
| 281.50 | *c1ccc(C(=O)Nc2ccc(Oc3ccc(Oc4ccc(NC(=O)c5ccc(Oc6ccc(-c7nn(*)c(=O)c8ccccc78)c7ccccc67)cc5)cc4C(F)(F)F)cc3)c(C(F)(F)F)c2)cc1 (repeat unit) |
| 190.00 | *CCCCN1C(=O)c2ccc(C(c3ccc4c(c3)C(=O)N(*)C4=O)(C(F)(F)F)C(F)(F)F)cc2C1=O (repeat unit) |
| 7.50 | *O[Si](C)(C)CCC/N=C1\c2ccccc2/C(=N\CCC[Si](*)(C)C)c2c(O)ccc(O)c21 (repeat unit) |
| 205.00 | *Oc1ccc(S(=O)(=O)c2ccc(Oc3ccc(C(C)(C)c4ccc(*)c(Cl)c4)cc3Cl)cc2)cc1 (repeat unit) |
| 240.00 | *C(=O)Nc1ccc(Oc2ccccc2-c2ccccc2Oc2ccc(NC(=O)c3ccc4c(c3)C(=O)N(c3ccc(Cc5ccc(N6C(=O)c7ccc(*)cc7C6=O)cc5)cc3)C4=O)cc2)cc1 (repeat unit) |
| 288.00 | *c1ccc(Sc2ccc(-c3nc4cc(-c5ccc6nc(-c7ccccc7)c(*)nc6c5)ccc4nc3-c3ccccc3)cc2)cc1 (repeat unit) |
| 183.00 | */C=C/c1ccc(N(C)CCOC(=O)Nc2ccc(C)c(NC(=O)OCCN(C)c3ccc(/C=C/C4=CC(=C(C#N)C#N)C=C(*)O4)s3)c2)s1 (repeat unit) |
| 262.00 | *c1ccc2c(c1)C(=O)N(c1cccc(C(O)c3cccc(N4C(=O)c5ccc(C(*)(C(F)(F)F)C(F)(F)F)cc5C4=O)c3)c1)C2=O (repeat unit) |
| 158.00 | *=Nc1ccc(Cc2ccc(NC(=*)c3ccccc3)cc2)cc1 (repeat unit) |
| 355.00 | *C(=O)c1ccc2c(c1)C(=O)N(c1ccc(-c3nc(-c4ccccc4)nc(-c4ccc(N5C(=O)c6ccc(*)cc6C5=O)cc4)n3)cc1)C2=O (repeat unit) |
| 214.00 | *Oc1ccc(C2(c3ccc(OC(=O)OC4C(C)(C)C(OC(*)=O)C4(C)C)cc3)c3ccccc3-c3ccccc32)cc1 (repeat unit) |
| 274.00 | *c1ccc(Oc2ccc(Oc3ccc(N4C(=O)c5ccc(-c6ccc7c(c6)C(=O)N(*)C7=O)cc5C4=O)cc3)c(C(C)(C)C)c2)cc1 (repeat unit) |
| 342.00 | *c1ccc(-c2cnc3cc(S(=O)(=O)c4ccc5nc(*)cnc5c4)ccc3n2)cc1 (repeat unit) |
| 47.00 | *C(=O)OCCCCCCCCCCCCOC(=O)c1ccc(N2C(=O)c3ccc(*)cc3C2=O)cc1 (repeat unit) |
| 466.00 | *c1ccc(N2C(=O)c3c(c(-c4ccccc4)c(-c4ccc(-c5c(-c6ccccc6)c6c(c(-c7ccccc7)c5-c5ccccc5)C(=O)N(*)C6=O)cc4)c(-c4ccccc4)c3-c3ccccc3)C2=O)cc1 (repeat unit) |
| 318.00 | *C(=O)c1ccc2c(c1)C(=O)N(c1c(C)cc(C(c3cc(C)c(N4C(=O)c5ccc(*)cc5C4=O)c(C)c3)c3cccc4ccccc34)cc1C)C2=O (repeat unit) |
| 145.00 | *CCOCCOCCOCCOCCOc1ccc(C(=O)Nc2cc(NC(=O)c3ccc(O*)cc3)cc(-c3nc4ccccc4[nH]3)c2)cc1 (repeat unit) |
| 30.00 | *CC(*)C(=O)OCCCCCOC(=O)c1ccc(OC(=O)c2ccc(C#N)cc2)cc1 (repeat unit) |

| glass transition temperature [°C] | SMILES |
| --- | --- |
| 290.00 | *c1ccc(Oc2ccc(S(=O)(=O)c3ccc(Oc4ccc(-c5c6c(c(*)c7ccccc57)C(=O)N(c5ccc(C(F)(F)F)cc5)C6=O)cc4)cc3)cc2)cc1 (repeat unit) |
| 345.00 | *Oc1cc(Oc2ccc(NC(=O)c3cc(NC(=O)C45CC6CC(CC(C6)C4)C5)cc(C(=O)Nc4ccc(*)cc4)c3)cc2)ccc1C12CC3CC(CC(C3)C1)C2 (repeat unit) |
| 259.50 | *C(=O)c1cccc(C(=O)c2ccc3c(c2)C(=O)N(c2cccc(N4C(=O)c5ccc(*)cc5C4=O)c2)C3=O)c1 (repeat unit) |
| 345.00 | *c1ccc(-c2nc3cc(S(=O)(=O)c4ccc5nc(-c6ccccc6)c(*)nc5c4)ccc3nc2-c2ccccc2)cc1 (repeat unit) |
| 231.00 | *Sc1ccc(C(=O)CNCCCCCCCCNCC(=O)c2ccc(*)cc2)cc1 (repeat unit) |
| 10.00 | *C/C=C/C[Si](*)(C)CCCOc1ccc(-c2ccccc2)cc1 (repeat unit) |
| 314.50 | *C(=O)c1ccc2c(c1)C(=O)N(c1ccc(Oc3ccc(C(=O)c4cccc(C(=O)c5ccc(Oc6ccc(N7C(=O)c8ccc(*)cc8C7=O)cc6)cc5)n4)cc3)cc1)C2=O (repeat unit) |
| 135.00 | *CCCCCOc1cccc(NC(=O)c2ccc(C(=O)Nc3cccc(O*)c3)cc2)c1 (repeat unit) |
| 110.00 | *Oc1ccc(S(=O)(=O)c2ccc(Oc3ccc(/N=C/c4ccc(*)cc4)cc3)cc2)cc1 (repeat unit) |
| 179.00 | *C1C(=O)N(c2cc(Br)c(O[Si](c3ccccc3)(c3ccccc3)c3ccccc3)c(Br)c2)C(=O)C1* (repeat unit) |
| 113.00 | *Oc1ccc(C(c2ccc(Oc3c(F)c(F)c(COC(c4cccc(C(OCc5c(F)c(F)c(*)c(F)c5F)(C(F)(F)F)C(F)(F)F)c4)(C(F)(F)F)C(F)(F)F)c(F)c3F)cc2)(C(F)(F)F)C(F)(F)F)cc1 (repeat unit) |
| 285.00 | *c1ccc(Oc2ccc(N3C(=O)c4ccc(Oc5cccc6c5C(=O)N(*)C6=O)cc4C3=O)cc2)cc1 (repeat unit) |
| 243.00 | *c1ccc(N(c2ccc(C#N)cc2)c2ccc(N3C(=O)c4ccc(Oc5ccc(C6(c7ccc(Oc8ccc9c(c8)C(=O)N(*)C9=O)cc7)CCCCC6)cc5)cc4C3=O)cc2)cc1 (repeat unit) |
| 261.00 | *c1cccc(C(=O)Nc2cccc(S(=O)(=O)c3cccc(NC(=O)c4cccc(N5C(=O)c6ccc(-c7cccc8c7C(=O)N(*)C8=O)cc6C5=O)c4)c3)c2)c1 (repeat unit) |
| 42.50 | *OC(=O)c1ccc(CCCCCc2ccc(C(*)=O)cc2)cc1 (repeat unit) |
| 236.00 | *c1ccc(Oc2ccc(N3C(=O)c4ccc(Oc5ccc(C6(c7ccc(Oc8ccc9c(c8)C(=O)N(*)C9=O)cc7)CCC(c7ccccc7)CC6)cc5)cc4C3=O)cc2)cc1 (repeat unit) |
| 44.00 | *CC(*)(C)C(=O)OCCCCCC(=O)Oc1ccc(OC(=O)c2ccc(OCCCCCC)cc2)cc1 (repeat unit) |
| 272.00 | *c1ccc(CC(=O)Nc2ccc(-c3ccc(NC(=O)Cc4ccc(-c5sc(*)c(-c6ccccc6)c5-c5ccccc5)cc4)cc3)cc2)cc1 (repeat unit) |
